Assay results from US8759535B2, “Substituted fused imidazole derivatives, pharmaceutical compositions, and methods of use thereof” (High Point Pharmaceuticals, LLC, priority 2010, dated 2014).
Where a name gives a salt, the structure may show the parent alone.

test system: HMOX1; test: HMOX1 Protein Assay (immunostaining of HO-1 in NHLF cells, GE InCell 1000); type: cell-based; settings: Homo sapiens, fold change above DMSO treated cells, 3 μM compound (asterisk), 16 h
Outline: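 NHLF cells seeded overnight in FGM-2, then exposed to compound or DMSO vehicle for 16 h, fixed, and immunostained for HO-1 with Hoechst nuclear counterstain; imaged on InCell 1000. Values are fold change over DMSO-treated cells, generally at 5 μM (0.8% DMSO), with asterisked entries at 3 μM.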

Row | Compound | fold induction at 3 µM
1 | Cn1c(Nc2nc3ccc(Cl)cc3s2)nc2cc(C(=O)NCCC(=O)N3CCOCC3)ccc21 [Example 373, 2-(6-Chloro-benzothiazol-2-ylamino)-1-methyl-1H-benzoimidazole-5-carboxylic acid (3-morpholin-4-yl-3-oxo-propyl)-amide] | 32
2 | CN1CCN(CCNC(=O)c2ccc3c(c2)nc(Nc2nc4ccc(Cl)cc4s2)n3C)CC1 [Example 338, 2-(6-Chloro-benzothiazol-2-ylamino)-1-methyl-1H-benzoimidazole-5-carboxylic acid [2-(4-methyl-piperazin-1-yl)-ethyl]-amide] | 13.6
3 | CC(O)C(=O)N1CC[C@@H](NC(=O)c2ccc3c(c2)nc(Nc2nc4ccc(Cl)cc4s2)n3C)C1 (stereo in doubt) [Example 295, 2-(6-Chloro-benzothiazol-2-ylamino)-1-methyl-1H-benzoimidazole-5-carboxylic acid [(R)-1-((R)-2-hydroxy-propionyl)-pyrrolidin-3-yl]-amide] | 29

same assay, conditions: Homo sapiens, fold change above DMSO treated cells, 5 μM compound, 16 h

Row | Compound | fold induction at 5 µM
4 | Cn1c(Nc2nc3ccc(OC(F)(F)F)cc3s2)nc2cc(C(=O)N3CCC(CCCO)CC3)ccc21 [Example 307, [4-(3-Hydroxy-propyl)-piperidin-1-yl]-[1-methyl-2-(6-trifluoromethoxy-benzothiazol-2-ylamino)-1H benzoimidazol-5-yl]-methanone] | 31.5
5 | COc1ccc(CNC(=O)c2ccc3c(c2)nc(Nc2nc4ccc(OC(F)(F)F)cc4s2)n3C)cc1O [Example 231, 1-Methyl-2-(6-trifluoromethoxy-benzothiazol-2-ylamino)-1H-benzoimidazole-5-carboxylic acid 3-hydroxy-4-methoxy-benzylamide] | 30.2
6 | Cn1c(Nc2nc3ccc(OC(F)(F)F)cc3s2)nc2cc(C(=O)NCC(=O)N3CCC(CO)CC3)ccc21 [Example 441, 1-Methyl-2-(6-trifluoromethoxy-benzothiazol-2-ylamino)-1H-benzoimidazole-5-carboxylic acid [2-(4-hydroxymethyl-piperidin-1-yl)-2-oxo-ethyl]-amide] | 73.6
7 | CC(C)Cn1c(Nc2nc3ccc(OC(F)(F)F)cc3s2)nc2cc(C(=O)O)ccc21 [Example 163, 1-Isobutyl-2-(6-trifluoromethoxy-benzothiazol-2-ylamino)-1H-benzoimidazole-5-carboxylic acid] | 26.3
8 | CNC(=O)c1ccc2c(c1)nc(Nc1nc3cc(OC(F)(F)F)ccc3s1)n2C [Example 115, 1-Methyl-2-(5-trifluoromethoxy-benzothiazol-2-ylamino)-1H-benzimidazole-5-carboxylic acid methylamide] | 1.5
9 | COc1cc2c(cc1C(=O)NCC(C)O)nc(Nc1nc3ccc(OC(F)(F)F)cc3s1)n2C (centres unmarked) [Example 68, 6-Methoxy-1-methyl-2-(6-trifluoromethoxy-benzothiazol-2-ylamino)-1H-benzoimidazole-5-carboxylic acid (2-hydroxy-propyl)-amide] | 21.1
10 | Cn1c(Nc2nc3ccc(OC(F)(F)F)cc3s2)nc2cc(C(=O)NCC3CCOCC3)ccc21 [Example 17, 1-Methyl-2-(6-trifluoromethoxy-benzothiazol-2-ylamino)-1H-benzoimidazole-5-carboxylic acid (tetrahydro-pyran-4-ylmethyl)-amide] | 21.4
11 | Cn1c(Nc2nc3ccc(OC(F)(F)F)cc3s2)nc2cc(C(=O)NCCOCC(C)(C)O)ccc21 [Example 245, 1-Methyl-2-(6-trifluoromethoxy-benzothiazol-2-ylamino)-1H-benzoimidazole-5-carboxylic acid [2-(2-hydroxy-2-methyl-propoxy)-ethyl]-amide] | 33.1
12 | CCOC(C)CNC(=O)c1ccc2c(c1)nc(Nc1nc3ccc(OC(F)(F)F)cc3s1)n2C (centres unmarked) [Example 54, 1-Methyl-2-(6-trifluoromethoxy-benzothiazol-2-ylamino)-1H-benzoimidazole-5-carboxylic acid (2-ethoxy-propyl)-amide] | 18.5
13 | CNC(=O)c1ccc2nc(Nc3nc4ccc(OC(F)(F)F)cc4s3)n(C)c2c1 [Example 38, 3-Methyl-2-(6-trifluoromethoxy-benzothiazol-2-ylamino)-3H-benzoimidazole-5-carboxylic acid methylamide] | 18
14 | C[C@@H](CO)CCNC(=O)c1ccc2c(c1)nc(Nc1nc3ccc(OC(F)(F)F)cc3s1)n2C [Example 223, 1-Methyl-2-(6-trifluoromethoxy-benzothiazol-2-ylamino)-1H-benzoimidazole-5-carboxylic acid ((R)-4-hydroxy-3-methyl-butyl)-amide] | 44.7
15 | COC(=O)c1ccc2c(c1)nc(Nc1nc3ccc(Cl)cc3s1)n2C [Example 28, 2-(6-Chloro-benzothiazol-2-ylamino)-1-methyl-1H-benzoimidazole-5-carboxylic acid methyl ester] | 10.1
16 | COC(=O)c1ccc2c(c1)nc(Nc1nc3ccc(C)cc3s1)n2C [Example 114, 1-Methyl-2-(6-methyl-benzothiazol-2-ylamino)-1H-benzoimidazole-5-carboxylic acid methyl ester] | 5.1
17 | Cn1c(Nc2nc3ccc(OC(F)(F)F)cc3s2)nc2cc(C(=O)NCC#N)ccc21 [Example 211, 1-Methyl-2-(6-trifluoromethoxy-benzothiazol-2-ylamino)-1H-benzoimidazole-5-carboxylic acid cyanomethyl-amide] | 46.1
18 | Cn1c(Nc2nc3ccc(Cl)cc3s2)nc2cc(C(=O)NCC(=O)N3CCC(O)C3)ccc21 (centres unmarked) [Example 399, 2-(6-Chloro-benzothiazol-2-ylamino)-1-methyl-1H-benzoimidazole-5-carboxylic acid [2-(3-hydroxy-pyrrolidin-1-yl)-2-oxo-ethyl]-amide] | 20.8
19 | Cn1c(Nc2nc3ccc(Cl)cc3s2)nc2cc(C(=O)NCCN3CCCC(F)(F)C3)ccc21 [Example 336, 2-(6-Chloro-benzothiazol-2-ylamino)-1-methyl-1H-benzoimidazole-5-carboxylic acid [2-(3,3-difluoro-piperidin-1-yl)-ethyl]-amide] | 16.1
20 | CNCCn1c(Nc2nc3ccc(Cl)cc3s2)nc2cc(C(=O)NCCOCCO)ccc21 [Example 240, 2-(6-Chloro-benzothiazol-2-ylamino)-1-(2-methylamino-ethyl)-1H-benzoimidazole-5-carboxylic acid [2-(2-hydroxy-ethoxy)-ethyl]-amide hydrochloride] | 35.4
21 | Cn1c(Nc2nc3cc(F)c(F)cc3s2)nc2cc(C(=O)O)ccc21 [Example 34, 2-(5,6-Difluoro-benzothiazol-2-ylamino)-1-methyl-1H-benzoimidazole-5-carboxylic acid] | 15.4
22 | Cn1c(Nc2nc3ccc(OC(F)(F)F)cc3s2)nc2cc(C(=O)NCCCS(C)(=O)=O)ccc21 [Example 110, 1-Methyl-2-(6-trifluoromethoxy-benzothiazol-2-ylamino)-1H-benzimidazole-5-carboxylic acid (3-methanesulfonyl-propyl)-amide] | 26.3
23 | Cn1c(Nc2nc3ccc(Cl)cc3s2)nc2cc(C(=O)NCC(=O)N3CCNCC3)ccc21 [Example 425, 2-(6-Chloro-benzothiazol-2-ylamino)-1-methyl-1H-benzoimidazole-5-carboxylic acid (2-oxo-2-piperazin-1-yl-ethyl)-amide hydrochloride] | 20.3
